Laboratory results taken from patent publication US11613547B2 (priority 2019, dated 2023).
“And” between values parts separate entries of the source, which are not always exact repeats. Equal entries are not always repeated. Where two headings read alike, the source gives them in different places.

Key:
mMOR [1] = molecular target: T1, mMOR (Mus musculus, UniProt P42866); test: Radioligand competition binding ([125I]IBNtxA), CHO membranes, mMOR; details: vs 125IBNtxA (0.1 nM), mean ± SEM
T1 construct: expressed in transfected cells

mKOR [2] = molecular target: T2, mKOR (Mus musculus, UniProt P33534); test: Radioligand competition binding ([125I]IBNtxA), CHO membranes, mKOR; details: vs 125IBNtxA (0.1 nM), mean ± SEM
T2 construct: expressed in transfected cells

mDOR [3] = molecular target: T3, mDOR (Mus musculus, UniProt P32300); test: Radioligand competition binding ([125I]IBNtxA), CHO membranes, mDOR; details: vs 125IBNtxA (0.1 nM), CHO membranes, mean ± SEM
T3 construct: expressed in transfected cells

mMOR [4] = molecular target: T1, mMOR; test: [35S]GTPγS functional assay, mMOR; assay type: biochemical; details: for EC50: nM ± SEM
mKOR [5] = molecular target: T2, mKOR; test: [35S]GTPγS functional assay, mKOR; assay type: biochemical; details: for EC50: nM ± SEM
mDOR [6] = molecular target: T3, mDOR; test: [35S]GTPγS functional assay, mDOR; assay type: biochemical; details: for EC50: nM ± SEM
hMOR [7] = molecular target: T4, hMOR (Homo sapiens, UniProt P35372); test: cell-based; assay type: cell-based; details: for EC50: read-out: Gi EC50 hMOR
T4 construct: expressed in transfected cells; host or cells: HEK 293T (ATCC CRL-11268), transient

hMOR [8] = molecular target: T4, hMOR; test: Tango β-arrestin recruitment assay, hMOR; assay type: cell-based
hKOR [9] = molecular target: T5, hKOR (Homo sapiens, UniProt P41145); test: cAMP inhibition assay (GloSensor, HEK 293T), hKOR; assay type: cell-based; details: for Bias factor toward G protein, hKOR: cAMP inhibition vs Tango, against U50,488H as control; for EC50: read-out: Gi EC50 hKOR
T5 construct: expressed in transfected cells; host or cells: HEK 293T (ATCC CRL-11268), transient

hKOR [10] = molecular target: T5, hKOR; test: Tango β-arrestin recruitment assay, hKOR; assay type: cell-based
[11] = molecular target: T6, mouse mu opioid receptor (mMOR) (Mus musculus, UniProt P42866); test: cell-based; assay type: cell-based; details: for EC50: read-out: Gi EC50 mMOR
T6 construct: expressed in transfected cells; host or cells: HEK-293T, transient (PEI), with BRET sensor cDNAs

[12] = molecular target: T6, mouse mu opioid receptor (mMOR); test: cell-based; assay type: cell-based
[13] = molecular target: T7, rat kappa opioid receptor (rKOR) (Rattus norvegicus, UniProt P34975); test: BRET assay, G-protein activation, rKOR; assay type: cell-based; details: for Bias factor toward G-protein, rKOR: BRET assays, against U50,488H as control; for EC50: read-out: Gi EC50 rKOR
T7 construct: expressed in transfected cells; host or cells: HEK-293T, transient (PEI), with BRET sensor cDNAs

[14] = molecular target: T7, rat kappa opioid receptor (rKOR); test: BRET assay, arrestin recruitment, rKOR; assay type: cell-based
[15] = molecular target: T8, mouse delta opioid receptor (mDOR) (Mus musculus, UniProt P32300); test: BRET assay, G-protein activation, mDOR; assay type: cell-based
T8 construct: expressed in transfected cells; host or cells: HEK-293T, transient (PEI), with BRET sensor cDNAs

[16] = molecular target: T8, mouse delta opioid receptor (mDOR); test: BRET assay, arrestin recruitment, mDOR; assay type: cell-based
hDOR [17] = molecular target: T9, hDOR (Homo sapiens, UniProt P41143); test: cAMP inhibition assay, hDOR; assay type: cell-based; parameters: expressed in transfected cells
hDOR [18] = molecular target: T9, hDOR; test: Tango β-arrestin recruitment assay, hDOR; assay type: cell-based; parameters: expressed in transfected cells; host or cells: HTLA cells expressing TEV fused-beta-Arrestin2
[19] = BRET, normalized to Emax of U50,488H
[20] = mDOR, BRET, normalized to DPDPE
[21] = read-out: Arrestin recruitment Emax % ± SEM

O=C(N[C@@H]1C=CC2[C@H]3Cc4ccc(O)c5c4[C@@]2(CCN3CC2CC2)[C@H]1O5)c1cccc(I)c1 (stereo partly shown) [MP1104, reference compound]
Ki (mMOR [1]): 21 pM | Ki (mKOR [2]): 6.4 pM | Ki (mDOR [3]): 80 ± 10 pM | EC50 (mMOR [4]; [35S]GTPγS): 0.21 ± 0.03 nM | mMOR Emax (mMOR [4]; [35S]GTPγS, relative to DAMGO): 103 ± 2% | EC50 (mKOR [5]; [35S]GTPγS): 0.027 ± 0.002 nM | mKOR Emax (mKOR [5]; [35S]GTPγS, relative to U50,488H): 104 ± 2% | EC50 (mDOR [6]; [35S]GTPγS): 0.41 ± 0.11 nM | mDOR Emax (mDOR [6]; [35S]GTPγS, relative to DPDPE): 88 ± 0% | Bias factor toward G protein, hMOR (hMOR [7]): 0.57 and 0.6 | Gi Emax hMOR (hMOR [7]): 94±1 | Gi pEC50±SEM hMOR (hMOR [7]): 10.13±0.05 | EC50 (hMOR [7]): 74 pM | Arrestin pEC50±SEM hMOR (hMOR [8]; Tango): 9.24±0.08 | EC50 (hMOR [8]; Tango): 573 pM | Arrestin Emax hMOR (hMOR [8]; Tango, normalized to Emax of DAMGO): 90±2.28 | Gi pEC50±SEM hKOR (hKOR [9]; cAMP inhibition): 11.74±0.04 | Bias factor toward G protein, hKOR (hKOR [9]): 0.18 and 0.2 | Gi Emax hKOR (hKOR [9]; cAMP inhibition, normalized to Emax of U50,488H): 107±1 | EC50 (hKOR [9]; cAMP inhibition): 1.84 pM | Arrestin pEC50±SEM hKOR (hKOR [10]; Tango, WT-hKOR): 10.4±0.06 | EC50 (hKOR [10]; Tango, WT-hKOR): 39.4 pM | Arrestin Emax hKOR (hKOR [10]; Tango, normalized to Emax of U50,488H): 117±2 | Bias factor toward G-protein, mMOR [11]: 0.1 | Gi Emax mMOR [11]: 62±2 | Gi pEC50±SEM mMOR [11]: 9.2±0.11 | EC50 [11]: 660 pM | Arrestin Emax mMOR [12]: 53±1.6 | Arrestin pEC50±SEM mMOR [12]: 9.55±0.12 | EC50 ([12]; read-out: Arrestin EC50 mMOR): 285 pM | Gi pEC50±SEM rKOR ([13]; BRET): 10.14±0.04 | Bias factor toward G-protein, rKOR [13]: 0.23 | Gi Emax rKOR [13, 19]: 93±1 | EC50 ([13]; BRET): 73 pM | Arrestin pEC50±SEM rKOR ([14]; BRET): 8.94±0.07 | EC50 ([14]; BRET): 1140 pM | Arrestin Emax rKOR [14, 19]: 89±2.6 | EC50 ([15]; mDOR, BRET): 1400 pM | G-Protein activation pEC50 ± SEM ([15]; mDOR, BRET): 8.9 ± 0.06 | G-Protein activation Emax % ± SEM [15, 20]: 91 ± 1.7% | Arrestin recruitment pEC50 ± SEM ([16]; mDOR, BRET): 7.6 ± 0.11 | EC50 ([16]; mDOR, BRET): 26000 pM | Arrestin recruitment Emax % ± SEM [16, 20]: 40 ± 1.7% | EC50 (hDOR [17]; hDOR): 400 pM | cAMP inhibition pEC50 ± SEM (hDOR [17]; hDOR): 9.4 ± 0.04 | cAMP inhibition Emax % ± SEM (hDOR [17]; hDOR, normalized to DPDPE or DADLE): 99 ± 1.1% | Arrestin recruitment pEC50 ± SEM (hDOR [18]; hDOR, Tango): 8.4 ± 0.06 | EC50 (hDOR [18]; hDOR, Tango): 3730 pM | Arrestin recruitment Emax % ± SEM (hDOR [18]; hDOR, Tango, normalized to DPDPE or DADLE): 189 ± 5.5%

O=C(N[C@@H]1CC[C@@]2(O)C3Cc4ccc(O)cc4[C@@]2(CCN3CC2CC2)C1)c1cccc(I)c1 [MP1601, N-((4bR,6R,8aS)-11-(Cyclopropylmethyl)-3,8a-dihydroxy-6,7,8,8a,9,10-hexahydro-5H-9,4b-(epiminoethano)phenanthren-6-yl)-3-iodobenzamide]
Ki (mMOR [1]): 200 ± 10 pM | Ki (mKOR [2]): 2130 ± 300 pM | Ki (mDOR [3]): 5370 ± 900 pM | Emax (mMOR [4]): 45 ± 4.6% | EC50 (mMOR [4]; [35S]GTPγS): 0.5 ± 0.2 nM | Emax (mKOR [5]): 72 ± 4.5% | EC50 (mKOR [5]; [35S]GTPγS): 3 ± 0.7 nM | Emax (mDOR [6]): 67 ± 3.9% | EC50 (mDOR [6]; [35S]GTPγS): 10 ± 1.6 nM | Bias factor toward G protein, hMOR (hMOR [7]): 4 | Gi pEC50±SEM hMOR (hMOR [7]): 9.99±0.09 | Emax (hMOR [7]; HEK-293T, read-out: Gi Emax hMOR): 69 ± 1% | EC50 (hMOR [7]): 100 pM | Emax (hMOR [8]): 27 ± 2% | Arrestin pEC50±SEM hMOR (hMOR [8]; Tango): 8.4±0.2 | Emax (hKOR [9]; HEK-293T, read-out: Gi Emax hKOR): 109 ± 1% | Gi pEC50±SEM hKOR (hKOR [9]; cAMP inhibition): 9.76±0.05 | Bias factor toward G protein, hKOR (hKOR [9]): 0.15 | EC50 (hKOR [9]; cAMP inhibition): 170 pM | Emax (hKOR [10]): 107 ± 3% | Arrestin pEC50±SEM hKOR (hKOR [10]; Tango, WT-hKOR): 8.49±0.07 | Gi pEC50±SEM mMOR [11]: 8.6±0.3 | EC50 [11]: 2200 pM | Emax ([11]; read-out: Gi Emax mMOR): 49 ± 3% | arrestin recruitment at mMOR [12]: no arrestin recruitment was observed | Gi pEC50±SEM rKOR ([13]; BRET): 8.1±0.12 | Bias factor toward G-protein, rKOR [13]: 0.9 | EC50 ([13]; BRET): 8900 pM | Emax ([13]; read-out: Gi Emax rKOR): 75 ± 3% | Emax [14]: 37 ± 3% | Arrestin pEC50±SEM rKOR ([14]; BRET): 7.2±0.23 | EC50 ([14]; BRET): 56500 pM | G-Protein activation pEC50 ± SEM ([15]; mDOR, BRET): 8.2 ± 0.20 | Emax ([15]; read-out: G-Protein activation Emax % ± SEM): 105 ± 6.7% | EC50 ([16]; mDOR, BRET): 9000 pM | Emax [16, 21]: 16 ± 1.4% | EC50 (hDOR [17]; hDOR): 2760 pM | cAMP inhibition pEC50 ± SEM (hDOR [17]; hDOR): 8.6 ± 0.06 | Emax (hDOR [17]; read-out: cAMP inhibition Emax % ± SEM): 106 ± 2.3% | Arrestin recruitment pEC50 ± SEM (hDOR [18]; hDOR, Tango): 7.1 ± 0.06 | EC50 (hDOR [18]; hDOR, Tango): 86700 pM | Emax (hDOR [18]; [21]): 203 ± 5.4%
